Measurements reported in the NIST ThermoML archive (doi:10.1021/je0496950).
Numbers after ± are expanded uncertainties.

Experiment: mn = molality of the nth substance listed, in mol/kg
Details: 101 kPa, Liquid; for speed of sound: Pulse-echo method

[Ni+2].[O-][Cl+3]([O-])([O-])[O-].[O-][Cl+3]([O-])([O-])[O-] [nickel perchlorate] + CC#N
Details	mass density, 288.13 K [kg/m3]	mass density, 293.15 K [kg/m3]	mass density, 298.15 K [kg/m3]	mass density, 303.15 K [kg/m3]	mass density, 308.15 K [kg/m3]	mass density, 313.15 K [kg/m3]	mass density, 323.15 K [kg/m3]	speed of sound, 298.15 K [m/s]
m1 = 0.0492	797.088 ± 0.73	791.73 ± 0.73	786.35 ± 0.74	780.945 ± 0.75	775.512 ± 0.76	770.049 ± 0.76	759.023 ± 0.78	–
m1 = 0.04923	–	–	–	–	–	–	–	1281.8 ± 1.4
m1 = 0.08198	–	–	–	–	–	–	–	1284 ± 1.4
m1 = 0.082	803.621 ± 0.72	798.268 ± 0.73	792.896 ± 0.73	787.511 ± 0.74	782.087 ± 0.75	776.641 ± 0.76	765.646 ± 0.77	–
m1 = 0.1087	809.018 ± 0.71	803.673 ± 0.72	798.312 ± 0.73	792.927 ± 0.73	787.516 ± 0.74	782.077 ± 0.75	771.11 ± 0.76	1285.8 ± 1.4
m1 = 0.135	814.36 ± 0.71	809.021 ± 0.71	803.671 ± 0.72	798.291 ± 0.73	792.889 ± 0.73	787.46 ± 0.74	776.511 ± 0.76	1287.5 ± 1.4
m1 = 0.1611	819.735 ± 0.7	814.406 ± 0.71	809.058 ± 0.71	803.686 ± 0.72	798.299 ± 0.73	792.88 ± 0.73	781.957 ± 0.75	1289.4 ± 1.4
m1 = 0.1844	824.54 ± 0.69	819.217 ± 0.7	813.878 ± 0.71	808.519 ± 0.71	803.134 ± 0.72	797.731 ± 0.73	786.838 ± 0.74	1290.9 ± 1.4
m1 = 0.2114	830.147 ± 0.69	824.83 ± 0.7	819.495 ± 0.7	814.141 ± 0.71	808.766 ± 0.72	803.366 ± 0.72	792.486 ± 0.74	1292.7 ± 1.4
m1 = 0.2353	835.248 ± 0.68	829.938 ± 0.69	824.608 ± 0.7	819.261 ± 0.7	813.893 ± 0.71	808.502 ± 0.72	797.637 ± 0.73	1294.1 ± 1.4
m1 = 0.2607	840.618 ± 0.68	835.309 ± 0.68	829.987 ± 0.69	824.647 ± 0.7	819.287 ± 0.7	813.905 ± 0.71	803.067 ± 0.72	1295.8 ± 1.4

[Mn+2].[O-][Cl+3]([O-])([O-])[O-].[O-][Cl+3]([O-])([O-])[O-] [manganese (II) perchlorate] + CC#N
Details	mass density, 288.15 K [kg/m3]	mass density, 293.15 K [kg/m3]	mass density, 298.15 K [kg/m3]	mass density, 303.15 K [kg/m3]	mass density, 308.15 K [kg/m3]	mass density, 313.15 K [kg/m3]	mass density, 323.15 K [kg/m3]	speed of sound, 298.15 K [m/s]
m1 = 0.07666	–	–	–	–	–	–	–	1282.8 ± 1.4
m1 = 0.08738	–	–	–	–	–	–	–	1283.5 ± 1.4
m1 = 0.1308	812.076 ± 0.7	806.744 ± 0.71	801.389 ± 0.72	796.009 ± 0.73	790.599 ± 0.73	785.164 ± 0.74	774.198 ± 0.76	1286 ± 1.4
m1 = 0.1732	820.267 ± 0.7	814.947 ± 0.7	809.604 ± 0.71	804.238 ± 0.72	798.846 ± 0.72	793.424 ± 0.73	782.485 ± 0.75	1288.4 ± 1.4
m1 = 0.216	828.628 ± 0.69	823.32 ± 0.69	817.989 ± 0.7	812.633 ± 0.71	807.252 ± 0.71	801.843 ± 0.72	790.933 ± 0.73	1290.8 ± 1.4
m1 = 0.257	836.778 ± 0.68	831.471 ± 0.69	826.148 ± 0.69	820.803 ± 0.7	815.431 ± 0.7	810.032 ± 0.71	799.145 ± 0.73	1293 ± 1.4
m1 = 0.298	845.062 ± 0.67	839.769 ± 0.68	834.455 ± 0.68	829.123 ± 0.69	823.764 ± 0.7	818.379 ± 0.7	807.522 ± 0.72	1295.3 ± 1.4
m1 = 0.3364	852.972 ± 0.66	847.683 ± 0.67	842.377 ± 0.67	837.051 ± 0.68	831.7 ± 0.69	826.326 ± 0.69	815.497 ± 0.71	1297.9 ± 1.4
m1 = 0.3745	860.854 ± 0.66	855.574 ± 0.66	850.277 ± 0.67	844.96 ± 0.67	839.624 ± 0.68	834.26 ± 0.69	823.454 ± 0.7	1300.3 ± 1.4
m1 = 0.4122	868.75 ± 0.65	863.479 ± 0.65	858.191 ± 0.66	852.884 ± 0.66	847.554 ± 0.67	842.203 ± 0.68	831.418 ± 0.69	1302.7 ± 1.4

[Cu+2].[O-][Cl+3]([O-])([O-])[O-].[O-][Cl+3]([O-])([O-])[O-] [copper perchlorate] + CC#N
Details	mass density, 288.13 K [kg/m3]	mass density, 293.15 K [kg/m3]	mass density, 298.15 K [kg/m3]	mass density, 303.15 K [kg/m3]	mass density, 308.15 K [kg/m3]	mass density, 313.15 K [kg/m3]	mass density, 323.15 K [kg/m3]	speed of sound, 298.15 K [m/s]
m1 = 0.0572	798.765 ± 0.72	793.409 ± 0.73	788.03 ± 0.74	782.624 ± 0.75	777.19 ± 0.76	771.728 ± 0.76	760.698 ± 0.78	–
m1 = 0.05724	–	–	–	–	–	–	–	1281.6 ± 1.4
m1 = 0.1013	807.682 ± 0.71	802.334 ± 0.72	796.961 ± 0.73	791.568 ± 0.74	786.147 ± 0.74	780.696 ± 0.75	769.697 ± 0.77	1284.3 ± 1.4
m1 = 0.1335	814.263 ± 0.71	808.919 ± 0.71	803.556 ± 0.72	798.17 ± 0.73	792.754 ± 0.73	787.314 ± 0.74	776.342 ± 0.76	1286.2 ± 1.4
m1 = 0.1645	820.66 ± 0.7	815.323 ± 0.71	809.967 ± 0.71	804.588 ± 0.72	799.184 ± 0.73	793.753 ± 0.73	782.802 ± 0.75	1288.2 ± 1.4
m1 = 0.1975	827.568 ± 0.69	822.238 ± 0.7	816.887 ± 0.71	811.516 ± 0.71	806.117 ± 0.72	800.692 ± 0.73	789.754 ± 0.74	1290 ± 1.4
m1 = 0.2264	833.698 ± 0.69	828.373 ± 0.69	823.028 ± 0.7	817.66 ± 0.71	812.272 ± 0.71	806.857 ± 0.72	795.939 ± 0.73	1291.8 ± 1.4
m1 = 0.258	840.493 ± 0.68	835.168 ± 0.69	829.828 ± 0.69	824.467 ± 0.7	819.083 ± 0.7	813.673 ± 0.71	802.774 ± 0.72	1293.7 ± 1.4
m1 = 0.285	846.334 ± 0.67	841.014 ± 0.68	835.678 ± 0.69	830.323 ± 0.69	824.946 ± 0.7	819.544 ± 0.7	808.66 ± 0.72	1295.4 ± 1.4
m1 = 0.3172	853.453 ± 0.67	848.137 ± 0.67	842.806 ± 0.68	837.456 ± 0.69	832.084 ± 0.69	826.687 ± 0.7	815.817 ± 0.71	1297.3 ± 1.4
